PubChem BioAssay (NCI)
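Dose response: 5 concentrations. Exposure: 48 h. Format: 96-well plates. Endpoint: linear interpolation; highest concentration if not reached. TGI denotes the concentration required for complete inhibition of growth.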

What was measured:
Assay in all cases: NCI-60 cell line screen, 48 h
EKVX NSCLC = tested on: EKVX NSCLC
BT-549 breast = tested on: BT-549 breast
HS 578T breast = tested on: HS 578T breast
A498 renal = tested on: A498 renal
DU-145 prostate = tested on: DU-145 prostate
OVCAR-4 ovarian = tested on: OVCAR-4 ovarian
SW-620 colon = tested on: SW-620 colon
UO-31 renal = tested on: UO-31 renal
HL-60(TB) leukemia = tested on: HL-60(TB) leukemia
K-562 leukemia = tested on: K-562 leukemia
SF-295 CNS = tested on: SF-295 CNS
SK-OV-3 ovarian = tested on: SK-OV-3 ovarian
ACHN renal = tested on: ACHN renal
NCI-H23 lung = tested on: NCI-H23 lung
A549 NSCLC = tested on: A549 NSCLC
MALME-3M melanoma = tested on: MALME-3M melanoma
OVCAR-3 ovarian = tested on: OVCAR-3 ovarian
T-47D breast = tested on: T-47D breast

| SMILES | TGI (EKVX NSCLC) [µM] | TGI (BT-549 breast) [µM] | TGI (HS 578T breast) [µM] | TGI (A498 renal) [µM] | TGI (DU-145 prostate) [µM] | TGI (OVCAR-4 ovarian) [µM] | TGI (SW-620 colon) [µM] | TGI (UO-31 renal) [µM] | TGI (HL-60(TB) leukemia) [µM] | TGI (K-562 leukemia) [µM] | TGI (SF-295 CNS) [µM] | TGI (SK-OV-3 ovarian) [µM] | TGI (ACHN renal) [µM] | TGI (NCI-H23 lung) [µM] | TGI (A549 NSCLC) [µM] | TGI (MALME-3M melanoma) [µM] | TGI (OVCAR-3 ovarian) [µM] | TGI (T-47D breast) [µM] |
| --- | --- | --- | --- | --- | --- | --- | --- | --- | --- | --- | --- | --- | --- | --- | --- | --- | --- | --- |
| COc1cc(C2SCC(=O)N2c2cccc(Cl)c2)cc(OC)c1OC (stereo unspecified) | > 100 | > 100 | > 100 | > 100 | > 100 | > 100 | > 100 | > 100 | > 100 | > 100 | > 100 | > 100 | > 100 | > 100 | > 100 | – | – | – |
| CCC(CCCN)Nc1cc(OC)cc2c(C)ccnc12 (stereo unspecified) | 36.3 | 28.5 | 27.6 | 34 | 35.5 | 39 | 36.9 | 25.6 | 27.7 | 39.5 | 32.9 | 26.4 | 32.6 | – | 29.2 | 50.4 | 34.7 | – |
| COc1cc2c(c(OC)c1)/C(=C/Sc1ccccc1)C(=O)N(C(C)(C)C)C2 | > 100 | 83 | – | 78.1 | > 100 | > 100 | > 100 | – | 59.9 | > 100 | 75.5 | 76.9 | > 100 | 77.1 | – | – | 53.2 | > 100 |
| O=C1C(Cl)=C(Nc2ccc(S(=O)(=O)O)cc2)C(=O)c2ccccc21 | 52.5 | > 100 | 52.8 | – | 36.5 | > 100 | 51.1 | 29.2 | > 100 | 94.2 | 82.5 | – | 45.8 | > 100 | 58.7 | 36.9 | 43.4 | – |
| O=c1ssc(=Nc2ccccc2)n1-c1ccccc1 | > 100 | – | 98.7 | > 100 | 39.9 | 33.2 | 51.8 | 31.7 | 96.2 | 70.2 | > 100 | > 100 | 31.1 | 50.2 | > 100 | > 100 | 53.1 | 39.1 |
| O=C(CCCN1CCC2(CC1)CC(c1ccccc1)OC2=O)c1ccc(F)cc1 (stereo unspecified) | > 100 | – | 95.2 | 74.5 | > 100 | > 100 | > 100 | > 100 | > 100 | 65.8 | 60.9 | > 100 | > 100 | > 100 | > 100 | 44 | > 100 | 69.1 |
| COC(=O)[C@H](CCSC)NC(=O)N[C@H](C)c1ccccc1 | > 100 | > 100 | > 100 | > 100 | > 100 | > 100 | > 100 | > 100 | > 100 | > 100 | > 100 | > 100 | > 100 | > 100 | > 100 | > 100 | > 100 | – |
| CC(C)(C)OC(=O)NC(Cc1ccccc1)OCc1ccccc1 (stereo unspecified) | 35.9 | 55.2 | 51.5 | – | 39.6 | – | 34.2 | 35.6 | – | 66.2 | 31.2 | 31.4 | 35 | 46.3 | 32.8 | 44.2 | 49.3 | 39.8 |
| CC(=O)C1C(=O)C(=O)N(c2cccc([N+](=O)[O-])c2)C1=O (stereo unspecified) | > 100 | > 100 | > 100 | – | > 100 | > 100 | > 100 | > 100 | > 100 | – | > 100 | > 100 | > 100 | > 100 | > 100 | – | > 100 | – |
| NC(N)=NCC[C@H](NC(=O)OCCCCCn1ccc(=O)[nH]c1=O)C(=O)O | > 100 | > 100 | > 100 | – | > 100 | > 100 | > 100 | > 100 | > 100 | > 100 | > 100 | > 100 | > 100 | > 100 | > 100 | > 100 | > 100 | > 100 |
| O=C(c1ccccc1)c1ccc2nc(-c3c(Cl)c(Cl)c(Cl)c(Cl)c3C(=O)N/N=C/c3ccc(Cl)cc3)[nH]c2c1 | > 100 | > 100 | > 100 | – | > 100 | > 100 | > 100 | > 100 | 21.1 | > 100 | > 100 | > 100 | 65.7 | > 100 | > 100 | > 100 | 51.5 | 88 |
| CCN1C(=O)c2cc(OC)c(OC)cc2C(=O)C12OC(=O)c1cc3c(cc12)OCO3 (stereo unspecified) | > 100 | > 100 | > 100 | > 100 | 88.4 | > 100 | > 100 | > 100 | – | > 100 | > 100 | – | > 100 | > 100 | > 100 | > 100 | > 100 | – |
| COC1/C=C/C(C)C(C(C)C(OC)C(C)CCC(=O)C(C)C(C/C=C/N(C)C=O)OC)OC(=O)C=CC2OC2(C)CC(OC)C(OC)C2=CC(=O)O[C@@H](C(C)C(OC)CC(OC)/C=C/C(C)C(O)C1)[C@H]2O (stereo partly specified) | 0.0163 | 0.0907 | 0.0351 | 0.0259 | 0.199 | > 1.24 | – | 0.00831 | 0.0785 | – | 0.0236 | 0.0667 | 0.016 | > 0.322 | 0.0384 | 0.854 | 0.0341 | – |
| C=C(Br)CNC(=O)Nc1ccc(Cl)c(Cl)c1 | 78.4 | – | 54.3 | 27.3 | 89.5 | > 100 | > 100 | 24.8 | 38.3 | 90.5 | 67.2 | 77 | 55 | 39.6 | 66 | 48.6 | 38.8 | > 100 |
